# Test results as given in article PMC6858451, “Rhesus Theta Defensin 1 Promotes Long Term Survival in Systemic Candidiasis by Host Directed Mechanisms” (Scientific Reports, 2019).
# Bridge positions count the residues as written; N and C are the ends. Peptide text beside a SMILES is read from it.
# Tests used:
# [1] = tested on: C. albicans 43001; assay: MIC/MFC, broth microdilution (modified CLSI M27-A2); type: cell-based
# Procedure: (§1) C. albicans strains were tested against RTD-1, fluconazole, and caspofungin in microdilution broth in accordance with Clinical and Laboratory Standards Institute (CLSI) document M27-A2 with the exception that 25 mM MOPS was used in place of 165 mM MOPS, as described previously. Overnight cultures were harvested by centrifugation, washed twice with Ca^2+ and Mg^2+-free PBS, pH 7.2, and suspended in test medium (RPMI 1640 medium, 25 mM MOPS, 2 mM L-glutamine) at 10^4 CFU/ml[62]. Incubations were conducted in flat bottom, 96-well microtiter plates (Greiner bio-one, Monroe, NC) containing 0.2 ml test medium per well. Duplicate 0.1 ml aliquots of serial two-fold dilutions of peptides and antifungal drugs were dispensed into wells, each of which was inoculated with 0.1 ml of fungal cell suspension containing 1 × 10^3 CFU. Plates were incubated at 30 °C for 48 hours after which A600 was determined using a SpectraMax M5e plate reader.
# (§2) Minimal fungicidal concentration (MFC) was determined by plating, on YPD plates, 10 µl from wells in MIC assay without cell growth and the first well with measurable turbidity as described[63]–[66] and corresponding aliquots from the no-agent controls. […] MFC is reported as the lowest concentration of peptide or antifungal drug that killed ≥99% of the input organisms.
# (§3) MICs and MFCs of RTD-1 were also performed in the presence of 50% mouse serum. Serum was prepared from blood collected by cardiac puncture from BALB/c mice. After coagulation at room temperature, serum was collected by centrifugation (200 g for 10 min followed by 23,000 g for 15 min), and diluted with an equal volume of yeast inoculum in MIC test medium described above.
# [2] = tested on: C. albicans 53264; assay: as above; type: cell-based
# Procedure: as §1, §2, §3
# [3] = tested on: C. albicans SC5314; assay: as above; type: cell-based; details: Candida albicans
# Procedure: as §1, §2, §3
# [4] = tested on: host and fungal proteases; details: cited from earlier work
# [5] = cited from earlier work
# [6] = tested on: C. albicans SC5314, 43001 and 53264; assay: MIC/MFC, summary statements over the three strains; type: cell-based
# Procedure: as §1
# Minimal fungicidal concentration (MFC) was determined by plating, on YPD plates, 10 µl from wells in MIC assay without cell growth and the first well with measurable turbidity as described[63]–[66] and corresponding aliquots from the no-agent controls. Under MIC incubation conditions, no filamentation occurred allowing for accurate CFU counts after plating on YPD plates which were incubated for 24 h at 30 °C. […]
# [7] = RTD-1 plasma pharmacokinetics
# Procedure: RTD-1 plasma levels were also analyzed 60 or 240 min after additional daily 5 mg/kg i.p. doses administered up to 6 days.
# Single dose PK of RTD-1 was evaluated by quantifying plasma peptide concentrations at intervals following 5 mg/kg bolus injections administered i.v. and i.p. to CD-1 mice. At indicated intervals, plasma was prepared from EDTA-anticoagulated blood collected aseptically by terminal cardiac puncture. Plasma was diluted 1:10 or 1:20 into 5% formic/5% acetonitrile. RTD-1 plasma concentrations were determined by reverse-phase liquid chromatography (XBridge phenyl 3.5 µm column, Waters) on an Acquity H-Class UPLC (Waters) with tandem electrospray mass spectroscopy on a Xevo TQ-S running MassLynx V4.1 (Waters). Quantitative mass spectroscopy was performed by multiple-reaction monitoring transition 417.38 > 517.14, with area under the curve determined by TargetLynx (Waters). Pharmacokinetic modeling of intravenous RTD-1 concentration-time data was performed with ADAPT (version 5) software using the naïve pooled data approach. One- and two-compartment models were evaluated. Model selection was based on the Akaike information criterion (AIC) and the Bayesian information criterion (BIC) scores, the likelihood ratio test (LRT), and goodness-of-fit plots. […] Area under the curve (AUC24) was calculated by taking the average of RTD-1 concentrations at each time point and applying the linear trapezoidal method. Bioavailability (F) for i.p. injection was determined using the ratio of AUCs from i.p. and i.v.
# [8] = 5 mg/kg i.v., two-compartment model, mean
compound,measurement,setting,value
"CC[C@H](C)C[C@H](C)CCCCCCCCC(=O)N[C@H]1C[C@@H](O)[C@@H](NCCN)NC(=O)[C@@H]2[C@@H](O)CCN2C(=O)[C@H]([C@H](O)CCN)NC(=O)[C@H]([C@H](O)[C@@H](O)c2ccc(O)cc2)NC(=O)[C@@H]2C[C@@H](O)CN2C(=O)[C@H]([C@@H](C)O)NC1=O [Caspo, caspofungin]",MIC,"[1]; Candida albicans, 43001, RPMI 1640, 25 mM MOPS, 2 mM L-glutamine, 1 × 10^3 CFU/well, 30 °C, 48 h, A600, complete inhibition of growth, duplicate, read-out: MIC",2 µg/mL
same,MFC,"[1]; Candida albicans, 43001, RPMI, plating of MIC wells on YPD, ≥99% killing of input inoculum",2 µg/mL
same,resistance relative to drug sensitive SC5314,"[1]; strain 43001 vs SC5314, RPMI",33 fold
same,MIC,"[2]; Candida albicans, 53264, RPMI 1640, 25 mM MOPS, 2 mM L-glutamine, 1 × 10^3 CFU/well, 30 °C, 48 h, A600, complete inhibition of growth, duplicate, read-out: MIC",> 8 µg/mL
same,MFC,"[2]; Candida albicans, 53264, RPMI, plating of MIC wells on YPD, ≥99% killing of input inoculum",> 8 µg/mL
same,resistance relative to drug sensitive SC5314,"[2]; strain 53264 vs SC5314, RPMI",> 133 fold
same,MIC,"[3]; RPMI 1640, 25 mM MOPS, 2 mM L-glutamine, 1 × 10^3 CFU/well, 30 °C, 48 h, A600, complete inhibition of growth, duplicate",0.06 µg/mL
same,MFC,"[3]; RPMI, plating of MIC wells on YPD, ≥99% killing of input inoculum",0.25 µg/mL
"CC[C@H](C)[C@@H]1NC(=O)[C@@H]2CSSC[C@H](NC(=O)[C@H](CCCNC(=N)N)NC(=O)[C@@H]3CSSC[C@H](NC1=O)C(=O)N[C@@H]([C@@H](C)O)C(=O)N[C@@H](CCCNC(=N)N)C(=O)NCC(=O)N[C@@H](Cc1ccccc1)C(=O)N3)C(=O)N[C@@H](CC(C)C)C(=O)N[C@H]1CSSC[C@H](NC(=O)[C@H](C(C)C)NC(=O)CNC(=O)[C@H](CCCNC(=N)N)NC(=O)[C@H](CCCNC(=N)N)NC1=O)C(=O)N[C@@H](CCCNC(=N)N)C(=O)N2 [RTD-1, Rhesus theta (θ) defensin-1] (cyclo(GFCRCLCRRGVCRCICTR); disulfide 3-16, 5-14, 7-12 (inferred); ring closure inferred)",stability to fungal proteases,[4],highly stable
same,stability to host proteases,[4],highly stable
same,immunogenicity,[5],non-immunogenic
same,MFCs as multiple of the MICs,[6]; RPMI,1–2 × the MICs
same,antifungal activity against blastospores in 50% mouse serum,[6]; peptide concentrations up to 100 µg/ml,inactive
same,"CLd, distributional clearance",[7]; [8],3.248 mL/h
same,"K10, elimination rate constant from the central compartment",[7]; [8],0.9719 h⁻¹
same,"T1/2-λ1, distribution half-life",[7]; [8],0.5676 h
same,"Vc, central volume of distribution",[7]; [8],14.58 mL
same,"Vp, peripheral volume",[7]; [8],24.88 mL
same,"λ1, distribution rate constant",[7]; [8],1.221 h⁻¹
same,"λ2, terminal rate constant",[7]; [8],0.1039 h⁻¹
same,accumulation in plasma,"[7]; daily 5 mg/kg i.p. doses up to 6 days, levels 60 or 240 min after dose",did not accumulate in plasma
same,Cmax,"[7]; mouse, in vivo, ip, 5 mg/kg",670 ng/mL
same,Tmax,"[7]; mouse, in vivo, ip, 5 mg/kg",4 h
same,bioavailability,"[7]; mouse, in vivo, ip, 5 mg/kg",63.4%
same,clearance,"[7]; mouse, in vivo, iv, 5 mg/kg",0.236 mL/min
same,half-life,"[7]; mouse, in vivo, iv, 5 mg/kg",6.67 h
